From ChEMBL document CHEMBL2074248, “Regulation of biliary drug efflux pump expression by hormones and xenobiotics” (Toxicology, 2001) come the findings set out here.

Data set [1] addresses T1, Bile salt export pump (Rattus norvegicus, UniProt O70127).
T1 sequence (O70127 whole entry): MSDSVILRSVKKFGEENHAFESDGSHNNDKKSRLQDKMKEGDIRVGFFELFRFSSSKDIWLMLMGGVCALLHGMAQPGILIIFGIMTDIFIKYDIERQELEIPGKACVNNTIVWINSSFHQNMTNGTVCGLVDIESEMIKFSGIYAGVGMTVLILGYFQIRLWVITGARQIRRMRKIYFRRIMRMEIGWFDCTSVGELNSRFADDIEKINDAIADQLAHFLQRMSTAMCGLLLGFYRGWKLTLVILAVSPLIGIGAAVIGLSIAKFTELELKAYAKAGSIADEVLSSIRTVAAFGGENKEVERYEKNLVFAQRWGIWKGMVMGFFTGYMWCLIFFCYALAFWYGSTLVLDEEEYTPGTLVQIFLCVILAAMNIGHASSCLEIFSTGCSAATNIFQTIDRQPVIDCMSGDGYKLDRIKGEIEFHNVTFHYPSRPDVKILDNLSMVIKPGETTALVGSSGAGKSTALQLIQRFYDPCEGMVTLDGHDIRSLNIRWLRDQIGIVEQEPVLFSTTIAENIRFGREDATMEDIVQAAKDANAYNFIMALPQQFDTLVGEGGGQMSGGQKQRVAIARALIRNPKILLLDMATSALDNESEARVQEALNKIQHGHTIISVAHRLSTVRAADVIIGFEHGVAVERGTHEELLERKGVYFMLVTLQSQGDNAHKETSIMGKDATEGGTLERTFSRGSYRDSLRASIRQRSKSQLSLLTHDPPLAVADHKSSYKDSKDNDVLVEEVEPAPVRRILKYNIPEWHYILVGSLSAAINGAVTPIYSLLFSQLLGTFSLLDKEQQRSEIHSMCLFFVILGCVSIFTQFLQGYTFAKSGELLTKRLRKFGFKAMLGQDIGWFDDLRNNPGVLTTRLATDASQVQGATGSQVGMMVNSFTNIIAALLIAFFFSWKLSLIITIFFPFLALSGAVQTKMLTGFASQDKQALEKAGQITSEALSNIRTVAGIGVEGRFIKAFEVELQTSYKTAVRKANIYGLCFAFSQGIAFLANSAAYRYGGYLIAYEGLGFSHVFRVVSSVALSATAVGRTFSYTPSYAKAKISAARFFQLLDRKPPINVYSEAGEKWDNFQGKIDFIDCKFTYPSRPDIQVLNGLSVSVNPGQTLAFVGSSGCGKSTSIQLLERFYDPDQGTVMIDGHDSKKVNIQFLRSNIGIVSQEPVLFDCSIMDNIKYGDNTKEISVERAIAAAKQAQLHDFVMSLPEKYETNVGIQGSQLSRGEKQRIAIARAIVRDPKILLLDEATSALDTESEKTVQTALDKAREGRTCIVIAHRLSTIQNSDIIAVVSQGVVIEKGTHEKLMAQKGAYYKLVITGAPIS
As to the kind of experiment: TP_TRANSPORTER: Northern blot from primary hepatocytes. The data set is classed as functional, cell-based, Sprague-Dawley, Hepatocyte.

Data set [2] deals with T1, Bile salt export pump. As to the kind of experiment: TP_TRANSPORTER: Northern blot in vivo rat. The data set is classed as functional, organism-based, Liver.

As for `C[C@@H]1C[C@H]2[C@@H]3CCC4=CC(=O)C=C[C@]4(C)[C@@]3(F)[C@@H](O)C[C@]2(C)[C@@]1(O)C(=O)CO` [DEXAMETHASONE], the Activity result on Bile salt export pump [1] and at Bile salt export pump [2] was “inducer [+]” each time.
